# Experimental data published in BindingDB's records for doi:10.1111/cbdd.12752 (Jagiellonian University Medical College, 2016).
# Molecular target: Histamine H4 receptor (Homo sapiens, UniProt Q9H3N8)
# Assay: In vitro [3H]histamine Binding Assay
# Conditions: pH 7.4; 4 °C
# Experimental: Prior to the experiments, cell membranes were sedimented by a 10 min centrifugation at 4 °C and 16 0009x g and resuspended in binding buffer (12.5 mM MgCl2, 1 mM EDTA and 75 mM Tris/HCl, pH 7.4). Competition binding experimentswere carried out by incubating membranes, 35 ug/well (prepared from Sf9 cells transiently expressing human H4R, co-expressed with G proteins Galphai2 and Gbeta1gamma2 subunits) in a final volume of 0.2 mL containing binding buffer and [3H]histamine 2x HCl (10 nM, 15.3 Ci/mmol, PerkinElmer, Waltham, MA, USA) in a 96 well microtitre plate. Assays were run in duplicates or triplicates with four or seven appropriate concentrations between 100 nM or 0.1 nM and 100 uM of the test compounds. Amount of experiments was at least 2. Only exceptions were for substance 2, 3, and 4 where only one experiment in duplicates was performed.Incubations were performed for 60 min at 25 °C and shaking at 250 rpm. Non-specific binding was determined.
# Histamine H4 receptor, sequence (Q9H3N8 whole entry): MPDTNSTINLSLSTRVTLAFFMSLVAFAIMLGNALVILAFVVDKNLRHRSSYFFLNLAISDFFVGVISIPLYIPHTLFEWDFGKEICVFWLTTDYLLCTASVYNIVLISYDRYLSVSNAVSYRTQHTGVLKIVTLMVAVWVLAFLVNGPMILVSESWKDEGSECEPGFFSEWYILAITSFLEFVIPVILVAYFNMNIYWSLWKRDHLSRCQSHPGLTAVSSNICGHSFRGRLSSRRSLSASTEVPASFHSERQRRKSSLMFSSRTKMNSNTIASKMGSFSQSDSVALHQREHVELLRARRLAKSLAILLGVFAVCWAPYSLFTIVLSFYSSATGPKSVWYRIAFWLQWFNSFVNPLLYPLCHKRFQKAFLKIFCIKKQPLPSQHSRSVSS
row,SMILES,Ki
1,CN1CCN(CCCNC(=O)Nc2cccc(Cl)c2)CC1 [1-(3-Chlorophenyl)-3-(3-(4-methylpiperazin-1-yl)propyl)urea (7)],> 100 µM
2,"CN1CCN(CCCNC(=O)c2sc3cc(Cl)ccc3c2Cl)CC1 [3,6-Dichloro-N-(3-(4-methylpiperazin-1-yl)propyl)benzo[b]thiophene-2-carboxamide (6)]",> 100 µM
3,"CN1CCN(c2nc(N)nc(CN3C(=O)NC(C)(C)C3=O)n2)CC1 [3-((4-Amino-6-(4-methylpiperazin-1-yl)-1,3,5-triazin-2-yl)methyl)-5,5-dimethylimidazolidine-2,4-dione (9)]",14.6 µM
4,"CC(C)Cc1nc(N)nc(N2CCN(C)CC2)n1 [4-(4-Methylpiperazin-1-yl)-6-(2-methylpropyl)-1,3,5-triazin-2-amine (10)]",8.26 µM
5,"CN1CCN(c2nc(N)nc(Cc3cccc4ccccc34)n2)CC1 [4-(4-Methylpiperazin-1-yl)-6-(naphthalen-1-ylmethyl)-1,3,5-triazin-2-amine (12)]",5.6 µM
6,"CN1CCN(c2nc(N)nc(-c3ccncc3)n2)CC1 [4-(4-Methylpiperazin-1-yl)-6-(pyridin-4-yl)-1,3,5-triazin-2-amine (15)]",3.19 µM
7,"CN1CCN(c2nc(N)nc(COc3ccc(Cl)cc3)n2)CC1 [4-((4-Chlorophenoxy)methyl)-6-(4-methylpiperazin-1-yl)-1,3,5-triazin-2-amine (14)]",10.6 µM
8,"CN1CCN(c2nc(N)nc(Cc3ccccc3)n2)CC1 [4-Benzyl-6-(4-methylpiperazin-1-yl)-1,3,5-triazin-2-amine (13)]",7.5 µM
9,CN1CCN(CCCNC(=O)c2cc3cc(Cl)ccc3[nH]2)CC1 [5-Chloro-N-(3-(4-methylpiperazin-1-yl)propyl)-1H-indole-2-carboxamide (5)],> 100 µM
10,CN1CCN(C(=O)c2ccccc2Cl)CC1 [(2-Chlorophenyl)(4-methylpiperazin-1-yl)methanone (1)],> 100 µM
11,CN1CCN(C(=O)c2cccc(Cl)c2)CC1 [(3-Chlorophenyl)(4-methylpiperazin-1-yl)methanone (2)],3.88 µM
12,CN1CCN(C(=O)c2ccc(Cl)cc2)CC1 [(4-Chlorophenyl)(4-methylpiperazin-1-yl)methanone (3)],7.55 µM
13,CN1CCN(C(=O)Nc2ccc(Cl)cc2)CC1 [N-(4-Chlorophenyl)-4-methylpiperazine-1-carboxamide (4)],3.52 µM
